The results in this text go back to paper PMC4618635 (Pharmacology Research & Perspectives, 2015).

Common to all, as to type: cell-based
For experiment [1], the target named is hERG potassium channel (Homo sapiens, UniProt Q12809). Briefly: whole-cell patch clamp, HEK cells stably expressing hERG, tail current block. A general note: In patch-clamp work, channel activity is measured electrically.
Experiment [2] has as its target hERG potassium channel (Homo sapiens, UniProt Q12809, F656A). The experiment is described as follows: whole-cell patch clamp, CHO cells transiently expressing F656A hERG, high [K+].
The target in experiment [3] is hERG potassium channel (Homo sapiens, UniProt Q12809, Y652A). Briefly: whole-cell patch clamp, CHO cells transiently expressing Y652A hERG.
Sequence of hERG potassium channel (Homo sapiens, UniProt Q12809, Y652A) (Q12809 whole entry Y652A): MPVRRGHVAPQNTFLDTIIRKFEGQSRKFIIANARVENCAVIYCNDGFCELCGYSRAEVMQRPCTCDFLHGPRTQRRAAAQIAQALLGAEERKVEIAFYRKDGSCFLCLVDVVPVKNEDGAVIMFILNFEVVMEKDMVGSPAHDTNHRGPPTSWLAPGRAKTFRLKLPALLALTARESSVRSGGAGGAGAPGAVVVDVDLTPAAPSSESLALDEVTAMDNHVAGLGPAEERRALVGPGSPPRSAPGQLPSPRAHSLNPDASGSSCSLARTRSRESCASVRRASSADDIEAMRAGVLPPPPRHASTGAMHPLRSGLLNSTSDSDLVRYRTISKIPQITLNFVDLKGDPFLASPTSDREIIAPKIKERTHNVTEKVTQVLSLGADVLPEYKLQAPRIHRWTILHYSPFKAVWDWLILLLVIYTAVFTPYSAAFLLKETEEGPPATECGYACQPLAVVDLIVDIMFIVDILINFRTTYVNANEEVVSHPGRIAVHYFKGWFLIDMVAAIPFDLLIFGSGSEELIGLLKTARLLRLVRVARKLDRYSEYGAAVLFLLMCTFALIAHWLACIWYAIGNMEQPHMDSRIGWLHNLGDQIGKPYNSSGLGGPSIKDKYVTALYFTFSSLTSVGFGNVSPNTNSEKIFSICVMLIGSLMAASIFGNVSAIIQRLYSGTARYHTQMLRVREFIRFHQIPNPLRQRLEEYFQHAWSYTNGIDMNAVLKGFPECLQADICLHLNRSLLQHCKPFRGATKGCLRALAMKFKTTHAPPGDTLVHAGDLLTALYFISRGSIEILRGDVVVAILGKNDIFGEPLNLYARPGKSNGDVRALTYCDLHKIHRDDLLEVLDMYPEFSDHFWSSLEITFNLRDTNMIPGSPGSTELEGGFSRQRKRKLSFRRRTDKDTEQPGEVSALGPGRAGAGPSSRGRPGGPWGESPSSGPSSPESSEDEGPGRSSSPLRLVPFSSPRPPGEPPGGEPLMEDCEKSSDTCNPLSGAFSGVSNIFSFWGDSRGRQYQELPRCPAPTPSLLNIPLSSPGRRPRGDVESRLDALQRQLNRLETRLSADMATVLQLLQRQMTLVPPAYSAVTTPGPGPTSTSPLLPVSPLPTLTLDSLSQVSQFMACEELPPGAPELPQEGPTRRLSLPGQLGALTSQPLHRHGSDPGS

Sequence of hERG potassium channel (Homo sapiens, UniProt Q12809, F656A) (Q12809 whole entry F656A): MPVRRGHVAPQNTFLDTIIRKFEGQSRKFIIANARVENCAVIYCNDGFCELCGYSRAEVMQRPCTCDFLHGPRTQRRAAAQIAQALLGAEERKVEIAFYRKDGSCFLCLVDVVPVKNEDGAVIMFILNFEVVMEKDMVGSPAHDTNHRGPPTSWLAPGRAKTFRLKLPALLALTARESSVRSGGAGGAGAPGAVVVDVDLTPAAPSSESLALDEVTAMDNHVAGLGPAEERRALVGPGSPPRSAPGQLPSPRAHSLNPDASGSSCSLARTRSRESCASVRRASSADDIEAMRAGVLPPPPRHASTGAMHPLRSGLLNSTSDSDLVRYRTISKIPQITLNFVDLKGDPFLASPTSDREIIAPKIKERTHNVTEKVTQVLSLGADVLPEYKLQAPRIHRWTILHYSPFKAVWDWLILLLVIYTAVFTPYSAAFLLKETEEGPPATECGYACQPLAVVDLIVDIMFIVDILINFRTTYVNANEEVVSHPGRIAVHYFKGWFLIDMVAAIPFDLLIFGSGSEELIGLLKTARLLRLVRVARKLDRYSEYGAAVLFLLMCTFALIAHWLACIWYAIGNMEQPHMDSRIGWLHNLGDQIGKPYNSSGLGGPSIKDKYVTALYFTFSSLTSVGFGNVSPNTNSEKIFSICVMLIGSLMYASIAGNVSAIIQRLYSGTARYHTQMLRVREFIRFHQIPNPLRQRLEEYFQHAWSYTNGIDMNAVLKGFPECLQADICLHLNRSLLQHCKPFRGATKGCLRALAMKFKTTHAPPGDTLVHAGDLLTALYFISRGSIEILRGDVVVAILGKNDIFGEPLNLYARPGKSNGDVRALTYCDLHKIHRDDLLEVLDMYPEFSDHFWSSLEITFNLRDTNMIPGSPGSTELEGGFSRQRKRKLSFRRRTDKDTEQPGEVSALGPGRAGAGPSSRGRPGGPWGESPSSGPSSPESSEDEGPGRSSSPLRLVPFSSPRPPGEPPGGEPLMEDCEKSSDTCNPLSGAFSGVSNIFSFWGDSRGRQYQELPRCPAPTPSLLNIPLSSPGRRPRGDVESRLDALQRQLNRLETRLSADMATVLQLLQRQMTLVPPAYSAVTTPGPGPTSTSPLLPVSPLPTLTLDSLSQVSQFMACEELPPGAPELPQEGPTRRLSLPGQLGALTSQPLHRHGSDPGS
Sequence of hERG potassium channel (Homo sapiens, UniProt Q12809) (Q12809 whole entry): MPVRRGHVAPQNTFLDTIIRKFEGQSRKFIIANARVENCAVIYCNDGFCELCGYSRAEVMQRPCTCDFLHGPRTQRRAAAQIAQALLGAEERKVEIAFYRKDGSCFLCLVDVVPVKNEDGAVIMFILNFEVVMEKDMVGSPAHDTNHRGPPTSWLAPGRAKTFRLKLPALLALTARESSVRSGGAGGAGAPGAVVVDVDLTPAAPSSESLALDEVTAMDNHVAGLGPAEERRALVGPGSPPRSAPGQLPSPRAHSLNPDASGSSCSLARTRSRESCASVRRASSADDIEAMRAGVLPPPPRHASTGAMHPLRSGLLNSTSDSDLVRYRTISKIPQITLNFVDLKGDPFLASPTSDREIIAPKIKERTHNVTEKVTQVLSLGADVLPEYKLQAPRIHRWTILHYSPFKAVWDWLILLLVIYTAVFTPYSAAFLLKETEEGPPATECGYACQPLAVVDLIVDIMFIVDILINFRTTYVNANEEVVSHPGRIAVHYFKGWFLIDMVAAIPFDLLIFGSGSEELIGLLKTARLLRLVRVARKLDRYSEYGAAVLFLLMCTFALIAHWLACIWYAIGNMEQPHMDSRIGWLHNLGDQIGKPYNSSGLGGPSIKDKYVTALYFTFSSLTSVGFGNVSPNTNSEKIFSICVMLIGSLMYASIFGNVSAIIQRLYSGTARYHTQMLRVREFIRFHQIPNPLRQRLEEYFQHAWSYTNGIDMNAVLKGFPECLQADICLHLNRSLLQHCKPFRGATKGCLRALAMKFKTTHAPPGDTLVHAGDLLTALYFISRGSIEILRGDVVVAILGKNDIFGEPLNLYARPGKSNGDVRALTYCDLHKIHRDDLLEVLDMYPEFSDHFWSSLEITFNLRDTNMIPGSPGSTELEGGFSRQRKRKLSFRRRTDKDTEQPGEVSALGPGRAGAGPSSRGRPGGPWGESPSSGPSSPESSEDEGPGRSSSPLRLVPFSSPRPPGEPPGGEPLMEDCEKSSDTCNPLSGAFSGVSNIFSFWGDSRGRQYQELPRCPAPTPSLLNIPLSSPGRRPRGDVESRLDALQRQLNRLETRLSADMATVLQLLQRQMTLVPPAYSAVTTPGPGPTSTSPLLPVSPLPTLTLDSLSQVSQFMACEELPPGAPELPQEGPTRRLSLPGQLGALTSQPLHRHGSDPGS

Regarding `Cc1cccc(C)c1OCC(C)N` (stereo not drawn) [mexiletine], the IC50 (usually the point on the concentration scale where inhibition reaches its midpoint) stood at 3.7 ± 0.7 µM in experiment [1], 111 ± 1.8 µM in experiment [2] and 41.6 ± 6.6 µM in experiment [3].
